# From patent US20030097221A1, “Detection and characterization of psychoactives using parallel multi-site assays in brain tissue” (priority 2001, published 2003)
# Several values for one entry are separate records, joined by “and”; a condition that tells them apart may be missing. Equal entries are not always repeated.
# Tests used:
# Format in all cases: cell-based, rat
# [1] = test system: glutamate receptor-mediated evoked excitatory synaptic transmission, hippocampal slice CA1; test: Paired-pulse evoked fEPSP in CA1, Schaffer collateral stimulation (assays SC50, SC200), MED64 multi-electrode array; design: key to SC 50 ms Amplitude fEPSP 1st, Mean / SC 50 ms Amplitude fEPSP 2nd, Mean / SC 200 ms Widths fEPSP 1st, Mean / SC 200 ms Widths fEPSP 2nd, Mean: fractional change vs. last 5 min of pre-wash-in control phase
# Procedure: (§1) A 17-24 day old Sprague Dawley rat was decapitated after anesthesia with halothane (2-bromo-2-chloro-1,1,1-trifluoroethane; Sigma; B4388), and the whole brain was removed. The brain was immediately soaked for ˜2 min in ice-cold, oxygenated preparation buffer of the following composition (in mM): 124 NaCl, 26 NaHCO3, 10 glucose, 3 KCl, 1.25 NaH2PO4, 2 CaCl2, and 2 MgSO4. Appropriate portions of the brain were trimmed and placed on the ice-cold stage of a vibrating tissue slicer (Leica, Nussloch, Germany; VT-1000S). The stage was immediately filled with both oxygenated and frozen preparation buffers. The thickness of each tissue slice was 350 μm. Each slice was gently taken off the blade, and immediately soaked in the oxygenated artificial cerebrospinal fluid (ACSF) for at least 1 hr at room temperature. Then a slice was placed on the center of the MED probe. The slice was positioned to cover the 8×8 array. After positioning the slice, the MED probe was immediately placed in a box filled with 95% O2 and 5% CO2.
# During recording, the slices were continuously perfused with a solution of the following composition: ACSF (in mM): 124 NaCl, 26 NaHCO3, 10 glucose, 3 KCl, 1.25 kH2PO4, 2 CaCl2, 1 MgSO4. All compounds were bath applied at known concentrations and were prepared daily from frozen aliquots. Compounds were purchased from Sigma. Ampakines (CX516, CX546, CX554) were made fresh everyday, and used at concentrations: CX516, 250 μM; CX546, 250 μM; and CX554, 30 μM.
# Baseline, application, and recovery time was usually at 10, 20, and 30 min respectively.
# During electrophysiological recording, the slices on the MED probe were placed in a small CO2 incubator (Asahi Lifescience; model 4020) at 32° C. The slices were placed on an interface, and a moisturized with a 95% O2 and 5% CO2 gas mixture.
# Evoked field potentials at all 64 sites (minus stimulation sites) were recorded simultaneously with the multichannel recording system (Panasonic: MED64 system) at a 20 kHz sampling rate. In the case of the evoked response, one of the planar microelectrodes out of the 64 available was used for the stimulating cathode. Bipolar constant-current pulses (10-50 μA; 0.1 ms) were produced by the data acquisition software via the isolator. The stimulating microelectrode was selected by the 64-switch box.
# All assays employ paired-pulse stimulation at various rat hippocampal sites to elicit evoked responses. The resulting field EPSP recordings were analyzed using Matlab software (The MathWorks, Inc.) by computing several response measures such as amplitude, halfwidth, and negative area, which apply to both the first and second evoked reponses. Amplitude was defined as the maximum depolarization magnitude relative to the average baseline reading prior to the first stimulation pulse. Halfwidth was defined as the duration of the depolarization phase of the evoked response at half its maximum amplitude value. Negative area was obtained by taking the magnitude of the integral of the evoked response curve over all segments with the same polarity as the depolarization phase. This integral spans a time window of 25 msec beginning one msec after the stimulation pulse.
# Amplitudes and halfwidths for both first and second elicited responses were computed for assays SC50, SC200, and CA3-1—50. For DG50 only first and second amplitudes were computed. Negative areas for first and second responses were computed for SC50, SC200, CA3-1—50, and MF50.
# All response paramters were utilized to quantify candidate sample composition effects on the hippocampus. For a given response parameter, the candidate sample composition effect was defined as the percent change of the average measure during the last five minutes of the wash-in phase with respect to the average measure of the last five minutes of the preceding, pre-wash-in control phase. […]
# [2] = test system: glutamate receptor-mediated evoked excitatory synaptic transmission, hippocampal slice dentate gyrus; test: Paired-pulse evoked fEPSP in dentate gyrus (assay DG50), MED64; settings: 250 μM; 50 ms inter-pulse delay
# Procedure: as §1, with “CO2. […]” for “CO2.”
# (§2) Evoked field potentials at all 64 sites (minus stimulation sites) were recorded simultaneously with the multichannel recording system (Panasonic: MED64 system) at a 20 kHz sampling rate. […]
# (§3) All assays employ paired-pulse stimulation at various rat hippocampal sites to elicit evoked responses. The resulting field EPSP recordings were analyzed using Matlab software (The MathWorks, Inc.) by computing several response measures such as amplitude, halfwidth, and negative area, which apply to both the first and second evoked reponses. Amplitude was defined as the maximum depolarization magnitude relative to the average baseline reading prior to the first stimulation pulse. […]
# The polarity of the evoked responses for assay DG50 was reversed before analysis because of the inverted voltage values recorded by the DG50 electrode. Assays SC50, SC200, MF50, and CA3-1—50, however, were analyzed without such a reversal. […]
# (§4) All response paramters were utilized to quantify candidate sample composition effects on the hippocampus. […]
# [3] = test system: glutamate receptor-mediated evoked excitatory synaptic transmission, hippocampal slice mossy fibers; test: Paired-pulse evoked fEPSP, mossy fibers (assay MF50), MED64; settings: 250 μM; 50 ms inter-pulse delay
# Procedure: A 17-24 day old Sprague Dawley rat was decapitated after anesthesia with halothane (2-bromo-2-chloro-1,1,1-trifluoroethane; Sigma; B4388), and the whole brain was removed. The brain was immediately soaked for ˜2 min in ice-cold, oxygenated preparation buffer of the following composition (in mM): 124 NaCl, 26 NaHCO3, 10 glucose, 3 KCl, 1.25 NaH2PO4, 2 CaCl2, and 2 MgSO4. Appropriate portions of the brain were trimmed and placed on the ice-cold stage of a vibrating tissue slicer (Leica, Nussloch, Germany; VT-1000S). The stage was immediately filled with both oxygenated and frozen preparation buffers. The thickness of each tissue slice was 350 μm. […]
# as §2, §3
# [4] = test system: hippocampal slice regions (CA1, DG, MF); test: Comparison between regions of the slice, area under the curve for all 4 assays (FIG. 9); settings: prediction drawn from the results of FIG. 9
# Procedure: All assays employ paired-pulse stimulation at various rat hippocampal sites to elicit evoked responses. The resulting field EPSP recordings were analyzed using Matlab software (The MathWorks, Inc.) by computing several response measures such as amplitude, halfwidth, and negative area, which apply to both the first and second evoked reponses. Amplitude was defined as the maximum depolarization magnitude relative to the average baseline reading prior to the first stimulation pulse. Halfwidth was defined as the duration of the depolarization phase of the evoked response at half its maximum amplitude value. Negative area was obtained by taking the magnitude of the integral of the evoked response curve over all segments with the same polarity as the depolarization phase. This integral spans a time window of 25 msec beginning one msec after the stimulation pulse. […]
# as §4
# To compare the response of tissue slices to candidate sample compositions between different regions of the slice, the area under the curve for all 4 assays was calculated.
# To compare the effect of compounds in candidate sample compositions between different regions of a tissue slice, the area under the curve for all 4 assays was calculated. […]
# [5] = CX516 250 μM, individual slice files, normalized change over control
# [6] = CX516 250 μM, n = 4, normalized change over control
smiles,measurement,setting,value
"O=C(c1ccc2nccnc2c1)N1CCCCC1 [CX516, 1-(Quinoxalin-6-ylcarbonyl)piperidine]",amplitude of both responses in CA1,"[1]; 250 μM, 50 ms or 200 ms delay between stimulation pulses",increase in the amplitude
same,effect on half-width of both responses,"[1]; 250 μM, summary of Table 1",no effect
same,increase of the amplitude of first and second fEPSP,"[1]; 250 μM, summary of Table 1",15-17%
same,SC 50 ms Amplitude fEPSP 1st,[1]; [5],0.276 and 0.211 and 0.087 and 0.110
same,SC 50 ms Amplitude fEPSP 2nd,[1]; [5],0.246 and 0.192 and 0.044 and 0.085
same,SC 50 ms Widths fEPSP 1st,[1]; [5],0.020 and −0.023 and 0.063 and 0.007
same,SC 50 ms Widths fEPSP 2nd,[1]; [5],−0.001 and 0.017 and 0.045 and 0.026
same,SC 200 ms Amplitude fEPSP 1st,[1]; [5],0.260 and 0.206 and 0.093 and 0.114
same,SC 200 ms Amplitude fEPSP 2nd,[1]; [5],0.258 and 0.194 and 0.067 and 0.085
same,SC 200 ms Widths fEPSP 1st,[1]; [5],0.036 and −0.024 and 0.051 and −0.002
same,SC 200 ms Widths fEPSP 2nd,[1]; [5],0.035 and 0.001 and 0.049 and 0.037
same,"SC 50 ms Amplitude fEPSP 1st, Change over Control (%)","[1]; CX516 250 μM, n = 4",17.108%
same,"SC 50 ms Amplitude fEPSP 2nd, Change over Control (%)","[1]; CX516 250 μM, n = 4",14.178%
same,"SC 50 ms Widths fEPSP 1st, Change over Control (%)","[1]; CX516 250 μM, n = 4",1.658%
same,"SC 50 ms Widths fEPSP 2nd, Change over Control (%)","[1]; CX516 250 μM, n = 4",2.168%
same,"SC 200 ms Amplitude fEPSP 1st, Change over Control (%)","[1]; CX516 250 μM, n = 4",16.825%
same,"SC 200 ms Amplitude fEPSP 2nd, Change over Control (%)","[1]; CX516 250 μM, n = 4",15.088%
same,"SC 200 ms Widths fEPSP 1st, Change over Control (%)","[1]; CX516 250 μM, n = 4",1.525%
same,"SC 200 ms Widths fEPSP 2nd, Change over Control (%)","[1]; CX516 250 μM, n = 4",3.055%
same,"SC 50 ms Amplitude fEPSP 1st, Mean",[1]; [6],0.171
same,"SC 50 ms Amplitude fEPSP 2nd, Mean",[1]; [6],0.142
same,"SC 50 ms Widths fEPSP 1st, Mean",[1]; [6],0.017
same,"SC 50 ms Widths fEPSP 2nd, Mean",[1]; [6],0.022
same,"SC 200 ms Amplitude fEPSP 1st, Mean",[1]; [6],0.168
same,"SC 200 ms Amplitude fEPSP 2nd, Mean",[1]; [6],0.151
same,"SC 200 ms Widths fEPSP 1st, Mean",[1]; [6],0.015
same,"SC 200 ms Widths fEPSP 2nd, Mean",[1]; [6],0.031
same,kind of modulation of the responses in CA1 (halfwidth vs amplitude),"[1]; CX516, CX546 250 μM, CX554 30 μM",amplitude only modulation
same,responses recorded in dentate gyrus (amplitude),[2],increase
same,mossy fibers' response (area),[3],increase
same,degree to which ampakines enhance activation of interneurons (rank order),[4],CX554>CX546>CX516
